# Laboratory results as given in patent US20240009201A1, “CYP11B2 BETA HYDROXYLASE INHIBITORS FOR HYPERTENSION” (MINERALYS THERAPEUTICS, INC., priority 2020, published 2024).
# Counter-ions that a name gives are not always drawn.
# Experiments:
# Assay type in all cases: in vivo
# CYP11B2 = biological target: T1, CYP11B2 (Mus musculus, UniProt P15539); assay: Radio-telemetry blood pressure in low renin hypertension animal model (Ay mice); conditions: 3 mg/kg/day via mini-osmotic pump, 7 days, FIG. 14
# T1 construct: from tissue; host or cells: living mice (endogenous enzyme); obese AY mice, Balb/C mice (Jackson Labs #000651)
# T1 sequence (P15539 25-500): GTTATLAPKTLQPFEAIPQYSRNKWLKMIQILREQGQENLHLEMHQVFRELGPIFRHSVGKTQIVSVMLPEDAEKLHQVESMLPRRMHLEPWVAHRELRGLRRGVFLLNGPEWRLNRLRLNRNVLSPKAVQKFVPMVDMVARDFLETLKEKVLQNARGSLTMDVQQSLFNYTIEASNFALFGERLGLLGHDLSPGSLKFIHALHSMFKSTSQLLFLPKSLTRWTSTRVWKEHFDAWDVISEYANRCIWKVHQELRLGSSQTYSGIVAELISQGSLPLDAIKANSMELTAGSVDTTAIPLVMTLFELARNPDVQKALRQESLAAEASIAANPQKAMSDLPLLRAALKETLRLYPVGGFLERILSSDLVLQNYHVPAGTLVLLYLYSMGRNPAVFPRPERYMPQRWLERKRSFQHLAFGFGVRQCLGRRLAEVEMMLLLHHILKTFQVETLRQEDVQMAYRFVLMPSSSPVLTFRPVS
# Procedure: Purpose: To determine whether CYP11B2 blockade (via aldosterone synthase inhibition) improves cardiovascular function in an animal model for low renin hypertension.
# Animal Model: All experiments were conducted in 12-16-week-old obese AY female mice.
# Telemetry Protocol: The telemetry protocol is illustrated in FIG. 13.
# Treatment Protocol: Male and female Balb/C mice (Jackson Labs, Bar Harbor, ME, Catalog #000651) at 10 weeks of age were utilized for all studies. Mice were implanted with indwelling telemeters (carotid catheter) (DSI© Model #PA-C10, New Brighton, MN) under isoflurane anesthesia as previously described. Following a 7-day recovery period baseline BP measurements were consciously recorded for 7 days while mice were on normal salt diet (NS) (0.2% NaCl, Teklad #2918, Envigo, United Kingdom). Mice were then treated with the test article (compound of formula (A), LCI699 or CIN-107, calculated to deliver 3 mg/kg/day) infused via an implanted mini-osmotic pump for an additional 7 days.
# Blood pressure measurement: For each protocol described in FIG. 13, 12 mice were used to record systolic, diastolic, mean arterial pressure heart rate and activity via radio-telemetry. Telemetry transmitters were implanted in the carotid artery at 12 weeks of age. After 2 weeks of recovery from surgery, baseline blood pressure was recorded for 7 consecutive days. Animals were then submitted to the treatment (compound of formula (A) HBr/LCI/CIN).
# Quantification of the effects of compound of formula (A) HBr, LCI, CIN on the degree of RAAS activation: Blood was collected from all the treated mice to investigate the effects of the aldosterone synthase inhibitors on plasma aldosterone, Angiotensin II and indices of RAS activation via LC-MS/MS.
# aldosterone synthase [1] = biological target: T2, aldosterone synthase (Homo sapiens, UniProt P19099); assay: Randomized, double-blinded, placebo-controlled SAD and MAD study (overall findings)
# T2 construct: from tissue; host or cells: living human subjects (endogenous adrenal enzyme)
# T2 sequence (P19099 25-503): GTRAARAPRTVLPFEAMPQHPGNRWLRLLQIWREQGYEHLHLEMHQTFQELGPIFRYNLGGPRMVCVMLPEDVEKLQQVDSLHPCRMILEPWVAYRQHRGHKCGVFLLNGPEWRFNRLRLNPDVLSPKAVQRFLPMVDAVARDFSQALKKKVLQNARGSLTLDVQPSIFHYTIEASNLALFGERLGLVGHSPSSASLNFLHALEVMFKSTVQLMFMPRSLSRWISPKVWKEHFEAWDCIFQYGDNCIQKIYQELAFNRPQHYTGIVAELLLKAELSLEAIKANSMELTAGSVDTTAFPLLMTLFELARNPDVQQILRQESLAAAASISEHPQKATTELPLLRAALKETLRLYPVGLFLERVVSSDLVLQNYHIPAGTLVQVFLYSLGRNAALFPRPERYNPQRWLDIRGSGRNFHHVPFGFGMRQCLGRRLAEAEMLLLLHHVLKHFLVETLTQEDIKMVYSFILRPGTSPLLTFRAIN
# Text: Aldosterone is produced by an aldosterone synthase, encoded by the gene CYP11B2. Aldosterone synthase catalyzes the final 3 steps in aldosterone synthesis, sequentially (1) from 11-deoxycorticosterone (11-DOC) to corticosterone, (2) from corticosterone to 18-OH-corticosterone, and (3) from 18-OH-corticosterone to aldosterone. […] 11β-hydroxylase catalyzes the conversion of 11-deoxycortisol to cortisol, and 11-deoxycorticosterone (11-DOC) to corticosterone.
# Because 11-DOC is a substrate for both CYP11B1 and CYP11B2, use of a selective aldosterone synthase inhibitor which preserves the activity of CYP11B1 is important for preventing accumulation of the precursor 11-DOC.
# (§1) Single Ascending Dose (SAD) and Multiple Ascending Dose (MAD) Study
# (§2) A randomized, double-blinded, placebo-controlled study was conducted in which 116 patients were randomized and 87 received the compound of Formula A in the form of an HBr salt.
# aldosterone synthase [2] = biological target: T2, aldosterone synthase; assay: Single ascending dose (SAD) study
# Procedure: as §1, §2
# Exposure above about 3-4 times the inhibition constant (Ki) was associated with duration of aldosterone suppression (FIG. 4).
# aldosterone synthase [3] = biological target: T2, aldosterone synthase; assay: Multiple ascending dose (MAD) study
# Procedure: as §1, §2
smiles,measurement,setting,value
CCC(=O)N[C@@H]1CCCc2c(-c3ccc4c(c3)CCC(=O)N4C)cncc21 [CIN-107],mean arterial blood pressure (MAP),CYP11B2,reduced MAP to a similar degree and to a value comparable to that seen in control mice
"CC(=O)N[C@H]1CC[C@H](NC(=O)CN2CCN(c3nncc(-c4ccc(C)cc4)n3)CC2)CC1 [Compound A HBr, N-[trans-4-(acetylamino)cyclohexyl]-2-{4-[5-(4-methylphenyl)-1,2,4-triazin-3-yl]piperazin-1-yl}acetamide monohydrobromide]","clinical laboratory, vital signs, ECGs or physical examination",aldosterone synthase [1]; SAD/MAD study,No clinically significant findings
same,deaths or serious adverse events (SAEs),aldosterone synthase [1]; SAD/MAD study,No deaths or serious adverse events (SAEs) occurred
same,effect on cortisol levels,aldosterone synthase [1]; SAD/MAD study,no effect on cortisol levels
same,hyperkalemia,aldosterone synthase [1]; SAD/MAD study,No hyperkalemia was noted
same,plasma aldosterone,"aldosterone synthase [1]; SAD/MAD study, 87 received the compound",rapid and durable reduction/suppression of plasma aldosterone
same,adverse events (AEs),aldosterone synthase [1]; compound groups vs placebo groups,comparable between the groups receiving the compound and placebo groups
same,serum cortisol,aldosterone synthase [2]; FIG. 2 (AUC-24),no evidence of dose-dependent reduction in serum cortisol
same,exposure associated with duration of aldosterone suppression,aldosterone synthase [2]; FIG. 4 (Cpu/Ki),3-4 times the inhibition constant (Ki)
same,duration of maximum aldosterone suppression,aldosterone synthase [2]; FIG. 5,dose-dependent increase
same,reduction of serum aldosterone,"aldosterone synthase [2]; dose of 50 mg, FIG. 1 (AUC-24)",50%
same,mean arterial blood pressure (MAP),CYP11B2,reduced MAP to a similar degree and to a value comparable to that seen in control mice
same,11-DOC level,"aldosterone synthase [3]; 360 mg dose level, FIG. 7",Accumulation of 11-DOC
same,serum aldosterone during the washout phase,"aldosterone synthase [3]; 360 mg dose, FIG. 6",overshoot in serum aldosterone
same,Plasma Renin Activity (PRA),aldosterone synthase [3]; FIG. 9,dose-dependent increase
same,dose giving 50% of maximum increase in Plasma Renin Activity (PRA),aldosterone synthase [3]; FIG. 9,40 mg
same,benefits on renal tubular sodium excretion,aldosterone synthase [3]; FIG. 12,seen at lower doses than are required for stimulation of renin and accumulation of 11-DOC
same,serum K+,"aldosterone synthase [3]; all doses tested, FIG. 10","physiological, non-adverse, increase in K^+"
same,adrenocorticotropic hormone (ACTH)-stimulated aldosterone secretion,"aldosterone synthase [3]; all doses tested, FIG. 11",suppression of adrenocorticotropic hormone (ACTH)-stimulated aldosterone secretion
same,dose-effect on duration of maximum aldosterone suppression,"aldosterone synthase [3]; day 7, FIG. 8",consistent with the SAD study
same,drug accumulation,aldosterone synthase [3]; multiple dosing,little drug accumulation
N#Cc1ccc([C@H]2CCc3cncn32)c(F)c1 [LCI699],mean arterial blood pressure (MAP),CYP11B2,reduced MAP to a similar degree and to a value comparable to that seen in control mice
"CC(=O)N[C@H]1CC[C@H](NC(=O)CN2CCN(c3nncc(-c4ccc(C)cc4)n3)CC2)CC1 [compound of Formula (A), N-[trans-4-(acetylamino)cyclohexyl]-2-{4-[5-(4-methylphenyl)-1,2,4-triazin-3-yl]piperazin-1-yl}acetamide]",dose range of aldosterone suppression without increase in 11-DOC or change in cortisol production (selectivity),aldosterone synthase [1]; in vivo,wide does range at which aldosterone is suppressed without an increase in 11-DOC or change in cortisol production
